From ChEMBL document CHEMBL1208748 (Bioorg Med Chem Lett, 2010) come the findings set out here.

Among the targets are Carbonic anhydrase 9 (Homo sapiens, UniProt Q16790); Carbonic anhydrase 1 (Homo sapiens, UniProt P00915); Carbonic anhydrase 3 (Homo sapiens, UniProt P07451); Carbonic anhydrase 7 (Homo sapiens, UniProt P43166); Carbonic anhydrase 12 (Homo sapiens, UniProt O43570).
The next test has as its target T1, Carbonic anhydrase 15 (Mus musculus, UniProt Q99N23).
T1 sequence (Q99N23 whole entry): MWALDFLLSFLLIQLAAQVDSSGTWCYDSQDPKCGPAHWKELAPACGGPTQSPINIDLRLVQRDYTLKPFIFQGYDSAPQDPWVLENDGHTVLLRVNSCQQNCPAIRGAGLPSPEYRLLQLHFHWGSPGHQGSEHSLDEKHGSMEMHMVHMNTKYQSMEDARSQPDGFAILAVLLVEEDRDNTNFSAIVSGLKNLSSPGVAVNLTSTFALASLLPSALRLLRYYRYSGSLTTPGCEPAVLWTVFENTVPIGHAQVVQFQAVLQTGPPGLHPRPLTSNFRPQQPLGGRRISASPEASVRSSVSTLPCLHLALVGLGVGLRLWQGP

For a further test, the target named is Carbonic anhydrase 13 (Homo sapiens, UniProt Q8N1Q1). As to the kind of experiment: Inhibition of human recombinant carbonic anhydrase 13 after 15 mins by stopped-flow CO2 hydration assay.
Test [1] concerns the target Carbonic anhydrase 5A, mitochondrial (Homo sapiens, UniProt P35218). As to the kind of experiment: Inhibition of human recombinant carbonic anhydrase 5a after 15 mins by stopped-flow CO2 hydration assay.
The next test concerns the target Carbonic anhydrase 14 (Homo sapiens, UniProt Q9ULX7). As to the kind of experiment: Inhibition of human recombinant carbonic anhydrase 14 after 15 mins by stopped-flow CO2 hydration assay.
Test [2] concerns the target Carbonic anhydrase 5B, mitochondrial (Homo sapiens, UniProt Q9Y2D0).

Carbonic anhydrase 7, sequence (P43166 whole entry): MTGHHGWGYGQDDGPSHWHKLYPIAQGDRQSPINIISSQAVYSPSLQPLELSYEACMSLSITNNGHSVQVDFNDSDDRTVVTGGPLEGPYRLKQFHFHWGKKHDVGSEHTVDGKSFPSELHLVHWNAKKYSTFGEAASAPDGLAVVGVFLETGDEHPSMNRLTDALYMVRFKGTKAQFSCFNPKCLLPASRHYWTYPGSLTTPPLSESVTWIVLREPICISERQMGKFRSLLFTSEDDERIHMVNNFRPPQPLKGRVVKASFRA
Carbonic anhydrase 3, sequence (P07451 whole entry): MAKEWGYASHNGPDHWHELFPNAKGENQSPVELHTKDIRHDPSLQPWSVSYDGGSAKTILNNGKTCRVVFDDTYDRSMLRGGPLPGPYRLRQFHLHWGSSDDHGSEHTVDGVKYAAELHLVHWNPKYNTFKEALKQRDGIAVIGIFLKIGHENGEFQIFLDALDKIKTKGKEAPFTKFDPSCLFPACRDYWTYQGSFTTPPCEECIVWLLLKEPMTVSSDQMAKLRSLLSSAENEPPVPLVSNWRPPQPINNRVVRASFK
Carbonic anhydrase 12, sequence (O43570 whole entry): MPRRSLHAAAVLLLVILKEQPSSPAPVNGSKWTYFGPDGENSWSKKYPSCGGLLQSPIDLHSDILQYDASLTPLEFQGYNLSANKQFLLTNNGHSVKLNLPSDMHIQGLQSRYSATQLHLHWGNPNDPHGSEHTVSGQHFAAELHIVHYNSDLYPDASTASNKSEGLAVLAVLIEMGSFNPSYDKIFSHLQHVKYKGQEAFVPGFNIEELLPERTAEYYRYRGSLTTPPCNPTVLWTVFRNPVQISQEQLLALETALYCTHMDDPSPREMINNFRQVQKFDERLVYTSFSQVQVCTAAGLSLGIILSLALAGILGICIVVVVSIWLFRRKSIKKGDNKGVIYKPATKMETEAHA
Carbonic anhydrase 1, sequence (P00915 whole entry): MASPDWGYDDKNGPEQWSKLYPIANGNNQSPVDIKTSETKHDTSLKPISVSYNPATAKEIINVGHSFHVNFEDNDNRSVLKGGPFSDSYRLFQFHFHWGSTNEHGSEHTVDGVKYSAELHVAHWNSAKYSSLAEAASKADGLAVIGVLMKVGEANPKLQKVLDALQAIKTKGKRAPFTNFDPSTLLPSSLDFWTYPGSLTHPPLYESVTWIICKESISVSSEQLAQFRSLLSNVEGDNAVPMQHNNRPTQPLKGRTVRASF
Carbonic anhydrase 13, sequence (Q8N1Q1 whole entry): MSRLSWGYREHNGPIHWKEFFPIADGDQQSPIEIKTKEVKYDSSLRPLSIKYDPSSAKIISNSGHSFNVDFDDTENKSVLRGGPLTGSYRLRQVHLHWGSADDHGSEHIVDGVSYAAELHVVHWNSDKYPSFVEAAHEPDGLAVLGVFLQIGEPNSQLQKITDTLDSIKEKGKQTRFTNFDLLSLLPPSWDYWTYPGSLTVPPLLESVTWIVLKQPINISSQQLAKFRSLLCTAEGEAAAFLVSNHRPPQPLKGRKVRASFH
Carbonic anhydrase 5A, mitochondrial, sequence (P35218 whole entry): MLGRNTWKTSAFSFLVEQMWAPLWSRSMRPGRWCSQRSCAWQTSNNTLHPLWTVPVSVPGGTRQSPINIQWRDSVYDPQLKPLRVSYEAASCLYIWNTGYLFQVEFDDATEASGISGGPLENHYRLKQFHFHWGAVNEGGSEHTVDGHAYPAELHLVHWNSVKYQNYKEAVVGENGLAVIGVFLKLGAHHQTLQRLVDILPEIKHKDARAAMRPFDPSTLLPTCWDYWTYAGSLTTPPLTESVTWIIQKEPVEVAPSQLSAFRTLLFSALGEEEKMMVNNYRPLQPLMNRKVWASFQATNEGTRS
Carbonic anhydrase 14, sequence (Q9ULX7 whole entry): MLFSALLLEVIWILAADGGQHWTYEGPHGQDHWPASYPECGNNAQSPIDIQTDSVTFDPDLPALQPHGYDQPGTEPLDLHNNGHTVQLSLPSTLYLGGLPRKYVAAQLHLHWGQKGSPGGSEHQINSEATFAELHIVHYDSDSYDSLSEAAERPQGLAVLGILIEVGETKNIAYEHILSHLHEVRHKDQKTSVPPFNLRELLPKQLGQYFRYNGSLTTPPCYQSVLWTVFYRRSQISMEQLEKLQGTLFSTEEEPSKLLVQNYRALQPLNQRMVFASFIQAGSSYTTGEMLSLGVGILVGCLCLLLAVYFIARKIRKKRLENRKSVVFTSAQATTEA
Carbonic anhydrase 5B, mitochondrial, sequence (Q9Y2D0 whole entry): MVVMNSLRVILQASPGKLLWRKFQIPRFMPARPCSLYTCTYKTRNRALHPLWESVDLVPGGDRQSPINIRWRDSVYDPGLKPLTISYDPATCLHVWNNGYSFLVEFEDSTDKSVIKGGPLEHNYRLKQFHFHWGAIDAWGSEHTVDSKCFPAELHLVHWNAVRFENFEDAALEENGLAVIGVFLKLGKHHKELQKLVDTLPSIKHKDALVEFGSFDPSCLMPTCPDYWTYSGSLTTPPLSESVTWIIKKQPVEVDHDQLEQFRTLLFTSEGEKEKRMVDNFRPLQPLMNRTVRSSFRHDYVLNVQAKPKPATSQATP

Take `NS(=O)(=O)c1nnc(NC(=O)C23CC4CC(CC(C4)C2)C3)s1`: the inhibitory constant (Ki) – broadly, a measure of affinity in units of concentration, obtained from inhibition or displacement – on Carbonic anhydrase 9 was determined as 6.4 nM; at Carbonic anhydrase 1 it was 883 nM; on Carbonic anhydrase 3 it was 300000 nM; on Carbonic anhydrase 7, 35 nM; at Carbonic anhydrase 12 it was 2.8 nM; on Carbonic anhydrase 15, 652 nM.
Consider `NS(=O)(=O)c1nnc(NC(=O)CC23CC4CC(CC(C4)C2)C3)s1`, for which the Ki came out at 49.5 nM on Carbonic anhydrase 9; 362 nM on Carbonic anhydrase 1; 410000 nM at Carbonic anhydrase 3; 48 nM at Carbonic anhydrase 7; 4.7 nM on Carbonic anhydrase 12; 719 nM at Carbonic anhydrase 15.
As to `Nc1nnc(S(N)(=O)=O)s1`, the Ki on Carbonic anhydrase 13 was 79 nM; on Carbonic anhydrase 3, 150000 nM; on Carbonic anhydrase 12 it was 34 nM.
Turning to `Cc1cc(C)[n+](CCc2ccc(S(N)(=O)=O)cc2)c(C)c1`, the inhibitory constant (Ki) at Carbonic anhydrase 3 came out at 300000 nM; on Carbonic anhydrase 15, 34 nM.
Take `Nc1c(F)cc(S(=O)(=O)Nc2nnc(S(N)(=O)=O)s2)cc1Cl`: the Ki at Carbonic anhydrase 7 came out at 2.9 nM; on Carbonic anhydrase 12 it was 13 nM; on Carbonic anhydrase 15, 30 nM.
For the compound `Cc1ccc(-c2cc(C(F)(F)F)nn2-c2ccc(S(N)(=O)=O)cc2)cc1` [CELECOXIB], the inhibitory constant (Ki) stood at 794 nM in [1]; 98 nM on Carbonic anhydrase 13; 689 nM on Carbonic anhydrase 14; 70000 nM on Carbonic anhydrase 3; 93 nM in test [2].
